Results: the NIST ThermoML archive (doi:10.1016/j.fluid.2018.09.017)

Assay: molar heat capacity at constant pressure
Conditions: Liquid, Flow calorimetry

CCCCCCCCCCCC(=O)OCC [ethyl dodecanoate]
Conditions | molar heat capacity at constant pressure [J/K/mol]
313.26 K, 5030 kPa | 472
313.26 K, 9990 kPa | 471
313.27 K, 140 kPa | 474
313.27 K, 14970 kPa | 470
313.28 K, 25150 kPa | 469
313.29 K, 20040 kPa | 470
323.22 K, 160 kPa | 480
323.22 K, 20140 kPa | 475
323.22 K, 25150 kPa | 474
323.23 K, 4980 kPa | 478
323.23 K, 10110 kPa | 477
323.23 K, 14920 kPa | 476
333.2 K, 140 kPa | 487
333.2 K, 4920 kPa | 485
333.2 K, 10150 kPa | 483
333.2 K, 15060 kPa | 482
333.2 K, 19970 kPa | 481
333.21 K, 25020 kPa | 480
343.15 K, 140 kPa | 493
343.16 K, 5160 kPa | 491
343.16 K, 10270 kPa | 489
343.19 K, 15130 kPa | 488
343.19 K, 20220 kPa | 487
343.21 K, 25180 kPa | 486
353.14 K, 180 kPa | 501
353.14 K, 4970 kPa | 498
353.17 K, 9950 kPa | 496
353.17 K, 14920 kPa | 494
353.17 K, 20020 kPa | 492
353.18 K, 24950 kPa | 491
363.17 K, 110 kPa | 508
363.18 K, 5010 kPa | 507
363.29 K, 10190 kPa | 505
363.29 K, 15070 kPa | 503
363.29 K, 20150 kPa | 501
363.29 K, 25100 kPa | 500
373.19 K, 110 kPa | 516
373.2 K, 4900 kPa | 514
373.21 K, 10170 kPa | 512
373.21 K, 15020 kPa | 511
373.22 K, 19850 kPa | 509
373.25 K, 24930 kPa | 508
383.23 K, 100 kPa | 523
383.23 K, 5000 kPa | 521
383.23 K, 10040 kPa | 520
383.24 K, 15080 kPa | 518
383.25 K, 19940 kPa | 517
383.28 K, 25150 kPa | 515
393.2 K, 4910 kPa | 530
393.22 K, 110 kPa | 532
393.22 K, 10100 kPa | 530
393.23 K, 19780 kPa | 528
393.27 K, 15020 kPa | 529
393.27 K, 24830 kPa | 527

CCCCCCCCC(=O)OCC [ethyl nonanoate]
Conditions | molar heat capacity at constant pressure [J/K/mol]
303.21 K, 15150 kPa | 369
303.22 K, 9980 kPa | 370
303.24 K, 20090 kPa | 369
303.25 K, 5000 kPa | 371
303.27 K, 24930 kPa | 368
303.31 K, 110 kPa | 371
313.21 K, 19900 kPa | 375
313.22 K, 14910 kPa | 376
313.23 K, 170 kPa | 377
313.24 K, 9850 kPa | 376
313.24 K, 24930 kPa | 374
313.26 K, 5090 kPa | 377
323.19 K, 4970 kPa | 385
323.22 K, 110 kPa | 386
323.22 K, 24920 kPa | 382
323.23 K, 10020 kPa | 384
323.24 K, 20090 kPa | 382
323.26 K, 15190 kPa | 383
333.16 K, 4930 kPa | 393
333.18 K, 140 kPa | 394
333.18 K, 9950 kPa | 393
333.19 K, 20150 kPa | 392
333.21 K, 15110 kPa | 393
333.23 K, 25020 kPa | 392
343.19 K, 5070 kPa | 400
343.19 K, 9940 kPa | 400
343.19 K, 14950 kPa | 400
343.2 K, 110 kPa | 401
343.21 K, 19870 kPa | 399
343.22 K, 25210 kPa | 399
353.11 K, 4910 kPa | 407
353.14 K, 160 kPa | 407
353.14 K, 10160 kPa | 406
353.15 K, 14930 kPa | 406
353.2 K, 20210 kPa | 405
353.23 K, 25190 kPa | 405
363.12 K, 110 kPa | 414
363.14 K, 5090 kPa | 413
363.16 K, 15060 kPa | 412
363.17 K, 10020 kPa | 413
363.17 K, 20130 kPa | 411
363.19 K, 25160 kPa | 410
373.12 K, 100 kPa | 420
373.12 K, 4830 kPa | 420
373.13 K, 10020 kPa | 419
373.13 K, 15150 kPa | 418
373.14 K, 20170 kPa | 418
373.14 K, 24950 kPa | 417
383.18 K, 160 kPa | 427
383.2 K, 4950 kPa | 426
383.2 K, 10190 kPa | 425
383.2 K, 15000 kPa | 425
383.22 K, 20130 kPa | 424
383.22 K, 24950 kPa | 424
393.18 K, 110 kPa | 434
393.18 K, 5090 kPa | 433
393.18 K, 10020 kPa | 433
393.19 K, 15150 kPa | 433
393.2 K, 20190 kPa | 432
393.24 K, 24960 kPa | 432
